Converted amounts (≈) assume the structure as drawn. Where only a bound is given, the exact number is not on record here.

Broadly, the MIC is the lowest concentration found to suppress growth. By EC50 is commonly meant the midpoint of the concentration-response curve. Broadly, the IC50 is the midpoint of a concentration-inhibition curve. As a reminder, the inhibition is the change of the read-out against control, counted positive when it falls. Usually LC50 stands for the concentration that kills 50% of the test population.

The test system of data set [1] is Candida metapsilosis. In words: Antifungal activity against Candida metapsilosis assessed as zone of inhibition at 35 ug/ml by disc diffusion method. The class given is functional. Conditions: Lodderomyces metapsilosis, read-out: IZ.
Data set [2] has as its system Aspergillus niger. In words: Antifungal activity against Aspergillus niger assessed as zone of inhibition at 35 ug/ml by disc diffusion method. The class given is functional. The conditions noted are these: read-out: IZ. For orientation: In agar diffusion tests the substance spreads into inoculated agar from a disc or well.
The test system of data set [3] is Escherichia coli. In words: Antibacterial activity against Escherichia coli assessed as zone of inhibition at 25 ug/ml by agar disc diffusion method. The class given is functional. The conditions noted are these: read-out: IZ.
Data set [4] deals with Staphylococcus aureus. In words: Antibacterial activity against Staphylococcus aureus assessed as zone of inhibition at 25 ug/ml by agar disc diffusion method. The class given is functional. The conditions noted are these: read-out: IZ.
The subject of data set [5] is Aspergillus niger. The experiment in a line: Antifungal activity against Aspergillus niger assessed as zone of inhibition at 10 ug/ml by disc diffusion method. The class given is functional. The conditions noted are these: read-out: IZ.
The subject of data set [6] is Staphylococcus aureus. The experiment in a line: Antibacterial activity against Staphylococcus aureus assessed as zone of inhibition at 35 ug/ml by agar disc diffusion method. The class given is functional. Conditions: read-out: IZ.
In data set [7] the test system is Escherichia coli. The experiment in a line: Antibacterial activity against Escherichia coli assessed as zone of inhibition at 35 ug/ml by agar disc diffusion method. The class given is functional. The conditions noted are these: read-out: IZ.
Data set [8] concerns Staphylococcus aureus. In words: Antibacterial activity against Staphylococcus aureus assessed as zone of inhibition at 10 ug/ml by agar disc diffusion method. The conditions noted are these: read-out: IZ. The class given is functional.
The subject of data set [9] is Escherichia coli. The experiment in a line: Antibacterial activity against Escherichia coli assessed as zone of inhibition at 10 ug/ml by agar disc diffusion method. The class given is functional. The conditions noted are these: read-out: IZ.
Data set [10] has as its system Candida metapsilosis. In words: Antifungal activity against Candida metapsilosis assessed as zone of inhibition at 10 ug/ml by disc diffusion method. The conditions noted are these: Lodderomyces metapsilosis, read-out: IZ. The class given is functional.
In data set [11] the test system is Candida metapsilosis. The experiment in a line: Antifungal activity against Candida metapsilosis assessed as zone of inhibition at 25 ug/ml by disc diffusion method. The class given is functional. The conditions noted are these: Lodderomyces metapsilosis, read-out: IZ.
The subject of data set [12] is Aspergillus niger. In words: Antifungal activity against Aspergillus niger assessed as zone of inhibition at 25 ug/ml by disc diffusion method. The class given is functional. Conditions: read-out: IZ.
Data set [13] has as its system Pseudomonas aeruginosa. In words: Antibacterial activity against Pseudomonas aeruginosa assessed as reduction in bacterial growth by CLSI protocol based agar dilution method. The class given is functional.
Data set [14] concerns Escherichia coli. In words: Antibacterial activity against Escherichia coli 209p assessed as reduction in bacterial growth by CLSI protocol based agar dilution method. The class given is functional. On the technique in general: In agar dilution, organisms are placed on agar that contains the substance at set levels.
The subject of data set [15] is Staphylococcus aureus. In words: Antibacterial activity against Staphylococcus aureus assessed as reduction in bacterial growth by CLSI protocol based agar dilution method. The class given is functional.
In data set [16] the test system is Shigella flexneri. The experiment in a line: Antibacterial activity against Shigella flexneri NIHJ assessed as reduction in bacterial growth by CLSI protocol based agar dilution method. The class given is functional.
Data set [17] relates to Hepatitis C virus. The experiment in a line: Antiviral activity against Hepatitis C virus genotype 2a infected in human Huh-7 cells assessed as reduction in viral infection. The class given is functional, organism-based, Hepacivirus hominis.
The test system of data set [18] is Escherichia coli. The experiment in a line: Antibacterial activity against Escherichia coli assessed as zone of inhibition at 35 ug/ml by agar well diffusion method. The conditions noted are these: read-out: IZ. The class given is functional.
The test system of data set [19] is Staphylococcus aureus. In words: Antibacterial activity against Staphylococcus aureus assessed as zone of inhibition at 10 ug/ml by agar well diffusion method. The class given is functional. Conditions: read-out: IZ.
In data set [20] the test system is Escherichia coli. In words: Antibacterial activity against Escherichia coli assessed as zone of inhibition at 25 ug/ml by agar well diffusion method. The class given is functional. Conditions: read-out: IZ.
In data set [21] the test system is Escherichia coli. In words: Antibacterial activity against Escherichia coli assessed as zone of inhibition at 10 ug/ml by agar well diffusion method. The class given is functional. Conditions: read-out: IZ.
Data set [22] has as its system Staphylococcus aureus. The experiment in a line: Antibacterial activity against Staphylococcus aureus assessed as zone of inhibition at 35 ug/ml by agar well diffusion method. The class given is functional. The conditions noted are these: read-out: IZ.
Data set [23] relates to Staphylococcus aureus. The experiment in a line: Antibacterial activity against Staphylococcus aureus assessed as zone of inhibition at 25 ug/ml by agar well diffusion method. The class given is functional. Conditions: read-out: IZ.
The target of data set [24] is Voltage-gated inwardly rectifying potassium channel KCNH2 (Homo sapiens, UniProt Q12809). In words: Inhibition of hERG. The class given is toxicity.
Voltage-gated inwardly rectifying potassium channel KCNH2, sequence (Q12809 whole entry): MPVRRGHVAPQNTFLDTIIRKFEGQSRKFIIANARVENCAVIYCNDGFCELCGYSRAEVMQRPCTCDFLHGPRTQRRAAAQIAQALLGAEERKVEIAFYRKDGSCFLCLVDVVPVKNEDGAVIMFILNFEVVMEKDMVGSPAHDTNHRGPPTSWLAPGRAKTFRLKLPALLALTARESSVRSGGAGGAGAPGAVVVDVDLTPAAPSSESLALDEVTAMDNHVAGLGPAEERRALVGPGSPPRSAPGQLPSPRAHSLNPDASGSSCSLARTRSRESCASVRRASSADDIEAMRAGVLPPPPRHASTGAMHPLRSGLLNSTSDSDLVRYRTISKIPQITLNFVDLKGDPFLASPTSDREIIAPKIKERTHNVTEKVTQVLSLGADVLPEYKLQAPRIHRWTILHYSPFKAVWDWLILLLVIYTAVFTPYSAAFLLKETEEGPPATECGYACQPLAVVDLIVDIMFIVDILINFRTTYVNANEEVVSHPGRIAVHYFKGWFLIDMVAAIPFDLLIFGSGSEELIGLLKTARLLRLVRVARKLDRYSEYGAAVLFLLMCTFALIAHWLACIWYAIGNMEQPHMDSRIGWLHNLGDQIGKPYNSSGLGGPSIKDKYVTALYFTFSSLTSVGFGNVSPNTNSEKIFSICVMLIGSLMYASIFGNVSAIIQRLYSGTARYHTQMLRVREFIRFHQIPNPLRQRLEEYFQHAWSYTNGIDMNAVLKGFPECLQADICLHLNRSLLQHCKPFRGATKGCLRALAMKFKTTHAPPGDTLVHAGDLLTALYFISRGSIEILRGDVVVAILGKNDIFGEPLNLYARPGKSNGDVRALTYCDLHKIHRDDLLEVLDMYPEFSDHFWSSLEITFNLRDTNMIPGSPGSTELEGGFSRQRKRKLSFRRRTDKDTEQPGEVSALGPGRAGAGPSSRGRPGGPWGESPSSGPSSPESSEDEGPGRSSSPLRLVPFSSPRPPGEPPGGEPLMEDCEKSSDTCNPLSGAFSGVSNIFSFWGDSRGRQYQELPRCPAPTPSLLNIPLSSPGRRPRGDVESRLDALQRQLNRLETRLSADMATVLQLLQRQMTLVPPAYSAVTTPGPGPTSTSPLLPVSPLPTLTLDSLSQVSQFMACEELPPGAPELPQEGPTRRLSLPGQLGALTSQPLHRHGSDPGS
Data set [25] has as its system Rattus norvegicus. In words: Anti-inflammatory activity against carrageenan-induced paw edema in rat assessed as inhibition of paw edema at 50 mg/kg, po relative to control. The class given is functional. Also noted: scale not given: the % may be the effect or the level left. Background: Carrageenan injected into the paw causes an acute inflammation.
The target in data set [26] is T1, hERG (KCNH2) (Homo sapiens, UniProt Q12809). The experiment in a line: Inhibition of hERG potassium […] at 100 uM relative to control. The class given is toxicity.
T1 sequence (Q12809 whole entry): as above
In data set [27] the target is T1, hERG (KCNH2). In words: Inhibition of hERG potassium […] at 6.25 uM relative to control. The class given is toxicity.
In data set [28] the test system is Staphylococcus aureus. In words: Antibacterial activity against Staphylococcus aureus assessed as zone of inhibition at 250 ug/ml by agar disc diffusion method. The class given is functional. The conditions noted are these: read-out: IZ.
For data set [29], the system named is Bacillus subtilis. The experiment in a line: Antibacterial activity against Bacillus subtilis assessed as zone of inhibition at 150 ug/ml by agar disc diffusion method. The class given is functional. The conditions noted are these: read-out: IZ.
Data set [30] has as its system Staphylococcus aureus. The experiment in a line: Antibacterial activity against Staphylococcus aureus assessed as zone of inhibition at 200 ug/ml by agar disc diffusion method. The class given is functional. Conditions: read-out: IZ.
The subject of data set [31] is Escherichia coli. In words: Antibacterial activity against Escherichia coli assessed as zone of inhibition at 150 ug/ml by agar disc diffusion method. The class given is functional. Conditions: read-out: IZ.
In data set [32] the test system is Bacillus subtilis. The experiment in a line: Antibacterial activity against Bacillus subtilis assessed as zone of inhibition at 200 ug/ml by agar disc diffusion method. The class given is functional. Conditions: read-out: IZ.
Data set [33] has as its system Staphylococcus aureus. In words: Antibacterial activity against Staphylococcus aureus assessed as zone of inhibition at 150 ug/ml by agar disc diffusion method. The class given is functional. The conditions noted are these: read-out: IZ.
Data set [34] relates to Escherichia coli. In words: Antibacterial activity against Escherichia coli assessed as zone of inhibition at 250 ug/ml by agar disc diffusion method. The class given is functional. Conditions: read-out: IZ.
Data set [35] concerns Bacillus subtilis. In words: Antibacterial activity against Bacillus subtilis assessed as zone of inhibition at 250 ug/ml by agar disc diffusion method. The class given is functional. The conditions noted are these: read-out: IZ.
Data set [36] has as its system Pseudomonas aeruginosa. The experiment in a line: Antibacterial activity against Pseudomonas aeruginosa assessed as zone of inhibition at 150 ug/ml by agar disc diffusion method. The class given is functional. The conditions noted are these: read-out: IZ.
Data set [37] concerns Pseudomonas aeruginosa. In words: Antibacterial activity against Pseudomonas aeruginosa assessed as zone of inhibition at 250 ug/ml by agar disc diffusion method. Conditions: read-out: IZ. The class given is functional.
Data set [38] has as its system Escherichia coli. The experiment in a line: Antibacterial activity against Escherichia coli assessed as zone of inhibition at 200 ug/ml by agar disc diffusion method. The class given is functional. The conditions noted are these: read-out: IZ.
Data set [39] relates to Pseudomonas aeruginosa. The experiment in a line: Antibacterial activity against Pseudomonas aeruginosa assessed as zone of inhibition at 200 ug/ml by agar disc diffusion method. The class given is functional. The conditions noted are these: read-out: IZ.
Data set [40] concerns Aphis craccivora. The experiment in a line: Anti-insecticidal activity against Aphis craccivora. The class given is functional.

For the molecule `O=c1oc2ccccc2cc1-c1cnc2c(-c3cccc([N+](=O)[O-])c3)cc3cccnc3n12`, the zone of inhibition at 35 µg/mL in [1] was found to be 28 mm; in data set [2] it was 28 mm; in data set [6] it was 31 mm; in data set [7], 32 mm. In addition, the zone of inhibition at 25 µg/mL in [3] was determined as 2 mm; in data set [4], 19 mm; in [11], 17 mm; in [12], 20 mm. Also, the zone of inhibition at 10 µg/mL in [5] came out at 7 mm; in [8], 8 mm; in data set [9], 8 mm; in data set [10], 7 mm.
For `CCn1cnc2cc3c(=O)c(C(=O)O)cn(CC)c3nc21`, the MIC was > 100 µg/mL in data set [13], 3.13 µg/mL (≈ 10.9 µM) in [14], 25 µg/mL (≈ 87.3 µM) in data set [15] and 3.13 µg/mL (≈ 10.9 µM) in data set [16].
On to `FC(F)(F)c1cc(C(F)(F)F)c2ccc3ncc(-c4cncnc4)n3c2n1`, for which the concentration giving a half-maximal response (EC50) in data set [17] was > 20000 nM.
`Fc1ccc(-c2cc3cccnc3n3c(-c4ccc(Br)cc4)cnc23)c(Cl)c1`: the results for the zone of inhibition at 35 µg/mL in data set [18] and in data set [22] were 25 mm and 24 mm, respectively. Also, the zone of inhibition at 10 µg/mL in data set [19] and in data set [21] was 6 mm each time. In addition, the zone of inhibition at 25 µg/mL in [20] and in data set [23] was 16 mm each time.
Take `Cc1cc(C)c2ccc3nc(-c4ccc(F)cc4)c(CN4CCOCC4)n3c2n1`: the 50% inhibitory concentration (IC50) in [24] was > 50000 nM.
With `CCn1cnc2c3cccnc3n(-c3ccccc3)c(=O)c21`, the Activity in data set [25] is 58.2%.
`Cc1cc(C)c2ccc3nc(-c4ccccc4)c(CN4CCOCC4)n3c2n1` showed an inhibition at 100 µM in [26] of 10.1%.
Regarding `Cc1ccccc1-c1cnc2ccc3c(C(F)(F)F)cc(C(F)(F)F)nc3n12`, the EC50 in data set [17] is 2800 nM.
`Cc1cc(C)c2ccc3nc(-c4ccc(F)cc4)c(CN4CCCCC4)n3c2n1`: the inhibition at 6.25 µM in data set [27] is 11%.
On to `Cc1cc(C)c2ccc3nc(-c4ccccc4)c(CN4CCCCC4)n3c2n1`, for which the IC50 in data set [24] was 1190 nM.
For `Cn1cnc2c3cccnc3n(-c3ccccc3)c(=O)c21`, the Activity in data set [25] is 40%.
Turning to `O=[N+]([O-])c1cccc(-c2cc3cccnc3n3c2nc2ccc(O)cc23)c1`, the zone of inhibition at 250 µg/mL was 22 mm in data set [28], 22 mm in data set [34], 23 mm in data set [35] and 22 mm in data set [37]. The zone of inhibition at 150 µg/mL in data set [29] is 16 mm; in data set [31], 17 mm; in data set [33] it was 18 mm; in data set [36] it was 17 mm. In addition, the zone of inhibition at 200 µg/mL in data set [30] was determined as 20 mm; in data set [32], 19 mm; in data set [38], 22 mm; in data set [39] it was 20 mm.
In turn, `N#Cc1c(N)nc2c(c1N)C(c1ccc(F)cc1)C([N+](=O)[O-])=C1N(Cc3ccc(Cl)nc3)CCN12` (stereo not drawn) displayed an LC50 in [40] of 11 nM.

Source of the values: ChEMBL document CHEMBL6109108, “A comprehensive review of fused imidazonaphthyridine derivatives: Synthetic approaches and biological applications” (Bioorg Med Chem, 2025).
